Laboratory results reported in a melting point compilation (Tetko et al.).

Structure (SMILES) | melting point [°C]
NC(=O)c1cc(-c2ccccc2)on1 | 202 to 204
O=C1Nc2cc(I)ccc2C1=O | 264 to 266
COc1ccc(Nc2nnc(S)s2)cc1 | 184 to 186
O=C(O)C1CC2CCCCC2N1C(=O)c1ccc(F)cc1 (stereo not given) | 147 to 149
NC(=S)c1cccc(O)c1 | 152 to 154
Cc1ccc(C(=O)N(C)C)cc1N | 97 to 99
O=C(Nc1ccccc1F)C1CSCN1 (stereo not given) | 97 to 99
CC(C)c1ccc(-c2nc(CSc3nnc(N)[nH]3)cs2)cc1 | 156 to 158
Cc1c(S(=O)(=O)Cl)cnn1-c1ccc(Cl)cc1 | 119 to 121
CNS(=O)(=O)c1ccc(N)cc1 | 110 to 112
Cn1cnc(-c2cccc(N)c2)n1 | 184 to 186
O=C(O)c1ccccc1SCc1cccs1 | 178 to 180
CC(C)CCS(=O)(=O)CC(=O)O | 61 to 63
Cc1ccc(F)cc1S(=O)(=O)Nc1cccc(C(=O)O)c1 | 215 to 217
NC(=O)CNc1ccccc1 | 139 to 141
CCn1c(S)nnc1-c1ccc(OC)cc1 | 178 to 180
O=S(=O)(Cl)c1cccc2c1OCCO2 | 74 to 76
CNc1snc(C)c1C(=O)O | 151 to 153
COc1ccc(CCl)cc1S(C)(=O)=O | 118 to 120
O=C(O)C(Cc1ccccc1Br)Cc1ccccc1Br | 145 to 147
O=[N+]([O-])c1cccc2c1CCN2 | 111 to 113
c1ccc(NCc2ccc3c(c2)OCO3)cc1 | 78 to 80
Cc1nnc(-c2ccccc2F)o1 | 37 to 39
CC(=O)Nc1ccc(O)c(S(=O)(=O)Cl)c1 | 164 to 166

Structure (SMILES) | melting point [°C]
COc1cc(/C=C/C(=O)O)ccc1OCc1c(C)noc1C | 110 to 112
CC(C)(C)OC(=O)NCC(C(=O)O)c1ccccc1 (stereo not given) | 144 to 146
O=C(O)c1ccc(Oc2ccc(F)cc2[N+](=O)[O-])c(Cl)c1 | 155 to 157
Clc1ccc(OCCCBr)cc1 | 29 to 34
C/C(CC(=O)c1ccccc1)=N\c1ccccc1 | 110 to 112
CCOC(=O)/C(C#N)=C/Nc1ccc(I)cc1 | 155 to 157
COCCCn1cnnc1S | 161 to 163
NS(=O)(=O)c1nc2ccccc2s1 | 177 to 179
CC(C)(C)n1cnc(N)n1 | 135 to 137
Cc1ccccc1C(C)CC(=O)O (stereo not given) | 47 to 49
Cc1ccc(C(=O)CCC(=O)O)s1 | 99 to 101
CS(=O)(=O)c1nnc(N)[nH]1 | 243 to 245
CCOC(=O)c1sc2ccsc2c1CBr | 98 to 100
O=C(CSc1nnnn1-c1ccccc1)c1ccc[nH]1 | 182 to 184
CCc1ccc(C(N)=S)cc1 | 47 to 51
COC(=O)c1cc(=O)c2cc(Cl)ccc2[nH]1 | 179 to 181
O=C(NC(CO)C(=O)O)c1ccccc1 (stereo not given) | 159 to 161
CC(C)(C)OC(=O)NC1CCN(CC(=O)O)CC1 | 204 to 206
N#Cc1cccc(NC(=O)CC2CC2)c1 | 89 to 91
Cc1ccc(S(=O)(=O)C(C#N)c2nc3ccccc3nc2Cl)cc1 (stereo not given) | 105 to 107
CC(=O)c1ccc2cccc3c2c1CC3 | 104 to 106
CCCC(=O)Nc1cccc(CN)c1 | 54 to 56
Cc1ccc(-c2noc3nc(C)cc(C(=O)O)c23)cc1 | 261 to 263
CC(=O)Nc1ccc(S(=O)(=O)NCCC(=O)O)cc1 | 160 to 162

Structure (SMILES) | melting point [°C]
O=C(CCCl)Nc1ccccc1Br | 104 to 106
Nc1nc2cc(-c3ccccc3)cc(Cl)c2o1 | 237 to 239
CCOC(=O)/C=C1/SCC(=O)N1Cc1cc(C(C)=O)ccc1OCC | 175 to 177
COc1cc(Br)c(S(=O)(=O)Cl)cc1Cl | 89 to 91
O=C(O)C1Cc2nc[nH]c2C(c2ccccc2)N1 (stereo not given) | 209 to 211
COC(=O)c1c[nH][nH]c1=O | 209 to 211
Cc1ccccc1-n1ncc(C(=O)O)c1N | 159 to 161
CN(C)c1ccc(C(=O)O)c(F)c1 | 199 to 201
COc1cccc(Cn2ccc3ccc(N)cc32)c1 | 59 to 61
Nc1ccc(Cl)c(CN2CCCCC2)c1 | 125 to 127
O=C(NCc1ccc(Cl)cc1)n1ccnc1 | 94 to 96
CSc1cccc(Cl)c1C#N | 114 to 116
O=C1CCc2cc(C(=O)c3ccccc3)ccc2N1 | 207 to 209
O=C(O)C1CC(=O)N(c2ccc(Br)cc2)C1 (stereo not given) | 173 to 175
CC(=O)CC(=O)Nc1cccc(C)c1C | 91 to 93
O=C(O)CCc1nnc(-c2ccccc2I)o1 | 84 to 86
Sc1nnnn1CC1CCCO1 (stereo not given) | 28 to 30
O=Cc1csc(-c2cccc(Br)c2)n1 | 99 to 101
O=C1NC(=O)C2CN(Cc3ccccc3)CC12 (stereo not given) | 91 to 93
CCN(CC)S(=O)(=O)c1cc(C)c(C)c(N)c1 | 147 to 149
Nc1ccc(Sc2ccccc2Cl)cc1 | 77 to 79
CSc1nc(-c2ccccc2)c[nH]1 | 130 to 132
